Data as given in US11760984B2, “CRISPR protein inhibitors” (THE BROAD INSTITUTE, INC., priority 2017, dated 2023).

What was measured:
[1] = target: T1, dCas9-cytidine deaminase conjugate (BE3) (UniProt P14739+P38483+Q99ZW2, D10A); assay: BE3 base-editing of EMX1 gene in HEK293T cells; format: cell-based; conditions: 1.25-20 μM, 72 h
T1 construct: made in house; host or cells: E. coli BL21 Star (DE3); purified protein:sgRNA complex lipofected into HEK293T cells
Experimental: Protein transfection of base editor BE3 into HEK293T cells. HEK293T cells were seeded on 48-well BioCoat poly-D-lysine plates (Corning) in 250 μL of antibiotic-free medium and transfected at ˜70% confluency. Prior to protein transfection, cells were incubated with 2 μL of DMSO-suspended BRD7087 or BRD5779 at the indicated concentration for 2-3 hours. BE3 protein was incubated with 1.1× molar excess of EMX1-targeting sgRNA at a final concentration ratio of 200 nM. 220 nM (based on a total well volume of 275 μL). The complex was mixed with 0.2 μL of compound for five minutes, incubated with 1.5 μL Lipofectamine 2000 (Thermo Fisher) and transfected according to the manufacturer's protocol plasmid delivery. […]
Purifications and sequencing of genomic DNA. […] Barcoded samples were pooled and purified by gel extraction (Qiagen) before quantification using the Qubit dsDNA HS Kit (Thermo Fisher) and qPCR (KAPA BioSystems) according to the manufacturer's instructions. Sequencing of pooled samples was performed using a single-end read from 260 to 300 bases on the MiSeq (Illumina) according to the manufacturer's instructions.
Analysis of base-edited sequences. Nucleotide frequencies were analyzed using a previously described MATLAB script 5. Briefly, the reads were aligned to the reference sequence via the Smith-Waterman algorithm. […]

[2] = system: S. aureus RN4220 strain; assay: Toxicity study of compounds in bacterial culture (no phage); format: cell-based; conditions: 20 μM; 16 h; inhibitor alone
Experimental: FIG. 79. Toxicity study of compounds in bacterial culture. Bacterial growth study in the presence of the compound. Bacterial cell S. aureus RN4220 strain was allowed to grow either in the presence of DMSO or 20 μM of compound BRD7087 or BRD5779 over 16 h. The experiment was performed in three technical replicates.
Bacterial study. Plasmid pRH248 harboring SpCas9, tracrRNA and a single-spacer array ([…]) (SEQ ID 13) No. targeting phage (DNM474 was constructed via BsaI cloning onto pDB114 as described in Heler et al 6. Plate reader growth curves of bacteria infected with phage were conducted as described previously with minor modifications 7. Overnight cultures were diluted 1:100 into 2 ml of fresh BHI supplemented with appropriate antibiotics and 5 mM CaCl2) and grown to an OD600 of ˜0.2. Immune cells carrying pRH248 were diluted with cells lacking CRISPR-Cas in a 1:10,000 ratio. […] To produce plate reader growth curves, 200 μL of infected cultures, normalized for OD600, were transferred to a 96-well plate in triplicate. […]
Bacterial study. […] Plate reader growth curves of bacteria infected with phage were conducted as described previously with minor modifications^7. […] To produce plate reader growth curves, 200 μL of infected cultures, normalized for OD600, were transferred to a 96-well plate in triplicate. […]

For `COc1ccc(-c2ccc3c(c2)[C@H]2[C@H](CCN2Cc2ccncc2)[C@@H](CO)N3)cc1` [BRD5779, ((3aR,4S,9bR)-8-(4-Methoxyphenyl)-1-(pyridin-4-ylmethyl)-2,3,3a,4,5,9b-hexahydro-1H-pyrrolo[3,2-c]quinolin-4-yl)methanol], the “inhibition of BE3-mediated base-editing (C→T conversion, words)” value [1] was “efficient and dose-dependent inhibition” and the “toxicity to bacteria in the absence of phage” value [2] was “non-toxic in the absence of phage”.
With `OC[C@H]1Nc2ccc(-c3cccc(F)c3)cc2[C@H]2[C@@H]1CCN2Cc1ccncc1` [BRD7087, ((3aR,4S,9bR)-8-(3-Fluorophenyl)-1-(pyridin-4-ylmethyl)-2,3,3a,4,5,9b-hexahydro-1H-pyrrolo[3,2-c]quinolin-4-yl)methanol] the “inhibition of BE3-mediated base-editing (C→T conversion, words)” value [1] was “efficient and dose-dependent inhibition” and the “toxicity to bacteria in the absence of phage” value [2] was “non-toxic in the absence of phage”.
